Measured values published in patent US20250074891A1 (Anaxis Pharma Pty Ltd., priority 2021, published 2025).

What was measured:
MLKL (full length) = MLKL (full length) (Homo sapiens (Human), UniProt Q8NB16); experiment: KINOMEscan binding assay, MLKL (full length); conditions: Table 36
Method: Kinase assays. For most assays, kinase-tagged T7 phage strains were grown in parallel in 24-well blocks in an E. coli host derived from the BL21 strain. E. coli were grown to log-phase and infected with T7 phage from a frozen stock (multiplicity of infection=0.4) and incubated with shaking at 32° C. until lysis (90-150 minutes).
The Hill Slope was set to −1.

[1] = tested on: U937 human histiocytic leukemia cell line; experiment: Cellular assay: inhibition of TSQ induced necroptosis (CellTitre-Glo); conditions: Homo sapiens, U-937; U937 cells, TSQ cocktail, 48 hours, Table 38; read-out: Inhibition of TSQ-induced necroptosis (IC50 cell-based assay)
Method: […] ASSAY: Screening compounds for inhibition of TSQ induced necroptosis, 384 well plate format.
Cell Line ID: U937 human histiocytic leukemia cell line.
Cell Concentration (cells/well): Final cell density is 20,000 cells per well.
Cell growth medium: HT-RPMI medium+7.4% Fetal Bovine Serum (FBS). Cells are cultured in Corning 150 cm^z tissue culture flasks with vented caps at 37° C./5% CO2.
Incubation: Plates were incubated at 37° C./5% CO2 in a humidified incubator for 48 hours following addition of compounds and death stimuli (TSQ cocktail).
Compound concentration: 36 μM starting concentration, 1:3 dilution, 10 point
DMSO final concentration (% v/v): 0.3%.
Compounds in TSQ cocktail (T: TNF; S: Smac mimetic; Q: Q-VD-OPh) and their final concentrations: • hTNF-Fc (100 ng/ml)—produced by standard procedures as shown in Bossen et al., J Biol Chem, 2006, 281(20), 13964-13971. • Compound A (500 nM)—Smac mimetic, Tetralogic and SYNthesis med chem • Q-VD-OPh (10 μM)—MP Biomedicals
The cellular assay was carried out according to the following steps: • 1. Each well was prepared by sequential addition of: • a. DMSO (control; columns 1-2 and 23-24) or compound in DMSO—addition was performed using acoustic transfer of nl volumes of stock compound to give final test concentrations of 36, 12, 4, 1.3, 0.44, 0.148, 0.049, 0.016, 0.005 and 0.002 μM. All wells were backfilled with DMSO to a final total volume in the well of 100 nl. • b. Following compound/DMSO addition in step (a), 40 μL of cell suspension (5×10^5 cells/mL) was added to provide a final cell concentration of 20,000 cells per well, and • c. Following cell addition in step (b), 10 μL of 5×TSQ cocktail (except to positive controls; […]) was added to each well. • 2. After 48 hours, plate was removed from the 37° C. incubator and equilibrated to room temperature for 45 minutes. • 3. 15 μL of room temperature CellTitre-Glo2™ (Promega™) was added to each well. • 4. Shook plates for 2 minutes (˜600 rpm) and incubated at room temperature for 15 minutes to allow signal to stabilise. • 5. Read luminescence readout on a plate reader.
Percent viability was calculated for each compound according to equation (2):
[formula] • wherein • RawData is the readout of any cell containing a compound of the invention • TA is the total activity provided by the luminescence readout from DMSO only wells (columns 2 and 24)=100% viability • NSA is the non-specific activity provided by DMSO+TSQ wells (columns 1 and 23)=0% viability
Curve fitting: 10-point titration curves are fitted with the 4-parameter logistic nonlinear regression model and the IC50 reported is the inflection point of the curve.
Analysis: Data was loaded into Dotmatics™ and visualised using the Tibco® Spotfire™ software. 10 points titration curves were fitted with the 4-parameter logistic nonlinear regression model and the IC50 reported reflect the inflection point of the curve for curve fitting.
Assay involving the TSQ cocktail (T: TNF; S: Smac mimetic; Q: Q-VD-OPh): TSQ treatment ensures that cells specifically undergo necroptotic cell death. TNF activates the TNF receptor, Smac mimetic directs the signal away from proinflammatory signaling and toward the RIP1/RIP3-mediated cell death pathways, and Q-VD-OPh ensures that the apoptotic response is blocked leaving only the programmed necrosis response. The compounds' activity (solution in DMSO) tested in this TSQ-induced assay was evaluated by determining the number of viable cells in culture by measuring the amount of ATP present as measured by CelltiterGlo.

U937 cells = experiment: Counter screen: cell viability without TSQ cocktail (off-target effect); design: species or system human; conditions: Homo sapiens, U-937, Table 38, read-out: Off-target effect (IC50 cell-based assay)
Method: Counter screen: In parallel, all compounds were tested for their ability to affect cell viability. The same U937 cells were treated with compound in DMSO without the TSQ cocktail. This counter screen enabled evaluation of off-target effects. In this case, cell viability was measured by CelltiterGlo.

Sequence of MLKL (full length) (Q8NB16 whole entry): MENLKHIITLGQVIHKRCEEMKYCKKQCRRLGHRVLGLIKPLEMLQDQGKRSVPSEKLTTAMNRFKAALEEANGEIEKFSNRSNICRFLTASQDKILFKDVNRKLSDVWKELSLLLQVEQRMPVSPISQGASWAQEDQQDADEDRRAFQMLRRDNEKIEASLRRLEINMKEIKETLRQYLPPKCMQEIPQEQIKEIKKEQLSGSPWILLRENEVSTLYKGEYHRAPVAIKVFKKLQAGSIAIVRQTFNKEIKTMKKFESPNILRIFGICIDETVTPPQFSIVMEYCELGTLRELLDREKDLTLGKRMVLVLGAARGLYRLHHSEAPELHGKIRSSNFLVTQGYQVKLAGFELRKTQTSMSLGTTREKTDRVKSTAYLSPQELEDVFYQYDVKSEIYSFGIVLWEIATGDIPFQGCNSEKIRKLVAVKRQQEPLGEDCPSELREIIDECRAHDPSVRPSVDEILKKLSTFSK

| Compound | Kd (MLKL (full length)) [µM] | IC50 [1] [µM] | IC50 (U937 cells) [µM] |
| --- | --- | --- | --- |
| CCS(=O)(=O)Nc1ccc(-c2n[nH]c(Nc3ccnc(OCCOCCOCCOCCOCCOCC(=O)N[C@H](C(=O)N4C[C@H](O)C[C@H]4C(=O)NCc4ccc(-c5scnc5C)cc4)C(C)(C)C)c3)c2C(N)=O)cc1 [Compound 1008, 3-(4-ethanesulfonamidophenyl)-5-({2-[(1-{[(2S)-1-[(2S,4R)-4-hydroxy-2-({[4-(4-methyl-1,3-thiazol-5-yl)phenyl]methyl}carbamoyl)pyrrolidin-1-yl]-3,3-dimethyl-1-oxobutan-2-yl]carbamoyl}-2,5,8,11,14-pentaoxahexadecan-16-yl)oxy]pyridin-4-yl}amino)-1H-pyrazole-4-carboxamide] | < 0.01 | > 10 | > 10 |
| CCS(=O)(=O)Nc1ccc(-c2n[nH]c(Nc3ccnc(OCCOCCOCCOCCOCCOCCOCC(=O)N[C@H](C(=O)N4C[C@H](O)C[C@H]4C(=O)NCc4ccc(-c5scnc5C)cc4)C(C)(C)C)c3)c2C(N)=O)cc1 [Compound 1009, 3-(4-ethanesulfonamidophenyl)-5-({2-[(1-{[(2S)-1-[(2S,4R)-4-hydroxy-2-({[4-(4-methyl-1,3-thiazol-5-yl)phenyl]methyl}carbamoyl)pyrrolidin-1-yl]-3,3-dimethyl-1-oxobutan-2-yl]carbamoyl}-2,5,8,11,14,17-hexaoxanonadecan-19-yl)oxy]pyridin-4-yl}amino)-1H-pyrazole-4-carboxamide] | < 0.01 | > 10 | > 10 |
| CCS(=O)(=O)Nc1ccc(-c2n[nH]c(Nc3ccnc(OCCOCC(=O)N[C@H](C(=O)N4C[C@H](O)C[C@H]4C(=O)NCc4ccc(-c5scnc5C)cc4)C(C)(C)C)c3)c2C(N)=O)cc1 [Compound 1010, 3-(4-ethanesulfonamidophenyl)-5-({2-[2-({[(2S)-1-[(2S,4R)-4-hydroxy-2-({[4-(4-methyl-1,3-thiazol-5-yl)phenyl]methyl}carbamoyl)pyrrolidin-1-yl]-3,3-dimethyl-1-oxobutan-2-yl]carbamoyl}methoxy)ethoxy]pyridin-4-yl}amino)-1H-pyrazole-4-carboxamide] | 0.01 to 1 | > 10 | > 10 |
| Cc1ncsc1-c1ccc(CNC(=O)[C@@H]2C[C@@H](O)CN2C(=O)[C@@H](NC(=O)COCCOc2cc(Nc3[nH]nc(-c4ccc(NS(=O)(=O)CC(F)(F)F)cc4)c3C(N)=O)ccn2)C(C)(C)C)cc1 [Compound 1011, 5-({2-[2-({[(2S)-1-[(2S,4R)-4-hydroxy-2-({[4-(4-methyl-1,3-thiazol-5-yl)phenyl]methyl}carbamoyl)pyrrolidin-1-yl]-3,3-dimethyl-1-oxobutan-2-yl]carbamoyl}methoxy)ethoxy]pyridin-4-yl}amino)-3-[4-(2,2,2-trifluoroethanesulfonamido)phenyl]-1H-pyrazole-4-carboxamide] | < 0.01 | > 10 | > 10 |
| Cc1ncsc1-c1ccc(CNC(=O)[C@@H]2C[C@@H](O)CN2C(=O)[C@@H](NC(=O)COCCOc2cc(Nc3[nH]nc(-c4ccc(NS(=O)(=O)C(F)F)cc4)c3C(N)=O)ccn2)C(C)(C)C)cc1 [Compound 1012, 3-[4-(difluoromethanesulfonamido)phenyl]-5-({2-[2-({[(2S)-1-[(2S,4R)-4-hydroxy-2-({[4-(4-methyl-1,3-thiazol-5-yl)phenyl]methyl}carbamoyl)pyrrolidin-1-yl]-3,3-dimethyl-1-oxobutan-2-yl]carbamoyl}methoxy)ethoxy]pyridin-4-yl}amino)-1H-pyrazole-4-carboxamide] | < 0.01 | > 10 | > 10 |
| CCS(=O)(=O)Nc1ccc(-c2n[nH]c(Nc3ccnc(OCCCCC(=O)N[C@H](C(=O)N4C[C@@H](O)C[C@H]4C(=O)NCc4ccc(-c5scnc5C)cc4)C(C)(C)C)c3)c2C(N)=O)cc1 [Compound 1014, 3-(4-ethanesulfonamidophenyl)-5-{[2-(4-{[(2S)-1-[(2S,4S)-4-hydroxy-2-({[4-(4-methyl-1,3-thiazol-5-yl)phenyl]methyl}carbamoyl)pyrrolidin-1-yl]-3,3-dimethyl-1-oxobutan-2-yl]carbamoyl}butoxy)pyridin-4-yl]amino}-1H-pyrazole-4-carboxamide] | < 0.01 | > 10 | > 10 |
| Cc1ncsc1-c1ccc(CNC(=O)[C@@H]2C[C@@H](O)CN2C(=O)[C@@H](NC(=O)CCCCOc2cc(Nc3[nH]nc(-c4ccc(NS(=O)(=O)C(F)F)cc4)c3C(N)=O)ccn2)C(C)(C)C)cc1 [Compound 1017, 3-[4-(difluoromethanesulfonamido)phenyl]-5-{[2-(4-{[(2S)-1-[(2S,4R)-4-hydroxy-2-({[4-(4-methyl-1,3-thiazol-5-yl)phenyl]methyl}carbamoyl)pyrrolidin-1-yl]-3,3-dimethyl-1-oxobutan-2-yl]carbamoyl}butoxy)pyridin-4-yl]amino}-1H-pyrazole-4-carboxamide] | < 0.01 | 1 to 10 | > 10 |
| CCS(=O)(=O)Nc1ccc(-c2n[nH]c(Nc3ccnc(OCCCCCCCCCCCCCC(=O)N[C@H](C(=O)N4C[C@H](O)C[C@H]4C(=O)NCc4ccc(-c5scnc5C)cc4)C(C)(C)C)c3)c2C(N)=O)cc1 [Compound 1018, 3-(4-ethanesulfonamidophenyl)-5-({2-[(13-{[(2S)-1-[(2S,4R)-4-hydroxy-2-({[4-(4-methyl-1,3-thiazol-5-yl)phenyl]methyl}carbamoyl)pyrrolidin-1-yl]-3,3-dimethyl-1-oxobutan-2-yl]carbamoyl}tridecyl)oxy]pyridin-4-yl}amino)-1H-pyrazole-4-carboxamide] | 0.01 to 1 | > 10 | > 10 |
| CCS(=O)(=O)Nc1ccc(-c2n[nH]c(Nc3cnc(OCCCCC(=O)N[C@H](C(=O)N4C[C@H](O)C[C@H]4C(=O)NCc4ccc(-c5scnc5C)cc4)C(C)(C)C)cn3)c2C(N)=O)cc1 [Compound 1022, 3-(4-ethanesulfonamidophenyl)-5-{[5-(4-{[(2S)-1-[(2S,4R)-4-hydroxy-2-({[4-(4-methyl-1,3-thiazol-5-yl)phenyl]methyl}carbamoyl)pyrrolidin-1-yl]-3,3-dimethyl-1-oxobutan-2-yl]carbamoyl}butoxy)pyrazin-2-yl]amino}-1H-pyrazole-4-carboxamide] | < 0.01 | < 1 | > 10 |
| Cc1ncsc1-c1ccc(CNC(=O)[C@@H]2C[C@@H](O)CN2C(=O)[C@@H](NC(=O)CCCCCCOc2ccc(Nc3[nH]nc(-c4ccc(NS(=O)(=O)C(F)F)c(O[C@@H](C)c5ccc(F)cc5)c4)c3C(N)=O)nc2)C(C)(C)C)cc1 [Compound 1059, 3-[4-(difluoromethanesulfonamido)-3-[(1S)-1-(4-fluorophenyl)ethoxy]phenyl]-5-({5-[(6-{[(2S)-1-[(2S,4R)-4-hydroxy-2-({[4-(4-methyl-1,3-thiazol-5-yl)phenyl]methyl}carbamoyl)pyrrolidin-1-yl]-3,3-dimethyl-1-oxobutan-2-yl]carbamoyl}hexyl)oxy]pyridin-2-yl}amino)-1H-pyrazole-4-carboxamide] | – | < 1 | 1 to 10 |
